In patent US6602906B1 (priority 2002, dated 2003):
Like-named read-outs stand apart in the source and are kept apart here.

What was measured:
[1] = Storage stability of the 5.0 wt % topical solution; assay type: physicochemical
Procedure: For topical use, a homogeneous solution in accordance with the present invention containing 5.0 wt % 5,6-O-isopropylidene L-ascorbic acid was prepared by mixing the ingredients shown in TABLE 1. The ingredients were added in the order given and in the given amounts. The solution was prepared in a glass container with continuous stirring. After the addition of the zinc sulfate, and again after the addition of the glycerin, the solution was heated to approximately 60° C. The heating increased the solubility of the 2-phenoxyethanol and of the 5,6-O-isopropylidene L-ascorbic acid. The solution was then filtered through a fine plastic mesh, yielding a clear, colorless to very pale yellow liquid. The 5,6-O-isopropylidene L-ascorbic acid in this solution will retain its potency for approximately six months if the solution is stored at room temperature in a bottle that is impervious to ultraviolet light. In darkness at 10° C., 5,6-O-isopropylidene L-ascorbic acid in solution will remain stable and potent for approximately 18 months.

[2] = tested on: inflamed skin; conditions: inflamed skin treated with acetone; cited from earlier work
[3] = neutral pH; cited from earlier work
[4] = tested on: human skin; conditions: applied topically prior to UVB; cited from earlier work
[5] = in the human; cited from earlier work
[6] = tested on: mouse skin; conditions: topical application, (hairless) mice; cited from earlier work
[7] = tested on: pig skin; conditions: applied topically prior to UVB; cited from earlier work
[8] = 20 wt %, pH 2.0; cited from earlier work
[9] = tested on: mice; conditions: topical; cited from earlier work
[10] = pKa of the molecule
[11] = tested on: skin of humans; conditions: topical application; cited from earlier work
[12] = cited from earlier work

CC1(C)OC[C@@H]([C@H]2OC(=O)C(O)=C2O)O1 [5,6-O-isopropylidene L-ascorbic acid]
time the compound in solution retains its potency ([1]; 5.0 wt % solution of TABLE 1, room temperature, bottle impervious to ultraviolet light): approximately six | time the compound in solution remains stable and potent ([1]; solution, in darkness at 10° C.): approximately 18 months

CC(C)=O [acetone]
erythema and edema [2]: diminished | presence of mononuclear cells (indicator of inflammation) [2]: significant decrease

O=C1O[C@H]([C@@H](O)CO)C(O)=C1O [ascorbic acid]
stability in aqueous solutions [3]: very unstable | erythema and sunburn after UVB irradiation [4]: erythema and sunburn were prevented | half-life [5]: about 20 days | photoaging changes / protection against photoaging in mouse skin [6]: decreased | erythema and sunburn after UVB irradiation [7]: erythema and sunburn were prevented | skin irritation [8]: highly irritating to the skin | protection against UV-induced immunosuppression and tolerance to contact antigen [9]: protect against UV-induced immunosuppression | pKa [10]: […] | photoaging changes in the skin [11]: decreased

CCCCCCCCCCCCCCCC(=O)OC[C@H](O)[C@H]1OC(=O)C(O)=C1O [ascorbyl-6-palmitate, Ascorbyl-6-palmitate]
photoaging changes / protection against photoaging in mouse skin [6]: failed to demonstrate protection against photoaging | skin levels of ascorbic acid ([12]; topical serum containing 10 wt %): no significant increase

O=C1O[C@H]([C@@H](O)CO)C([O-])=C1OP(=O)([O-])[O-].O=C1O[C@H]([C@@H](O)CO)C([O-])=C1OP(=O)([O-])[O-].[Mg+2].[Mg+2].[Mg+2] [magnesium ascorbyl 2-phosphate]
skin levels of ascorbic acid ([12]; topical serum containing 13 wt %): failed to increase skin levels of ascorbic acid
